Experimental findings from patent US11878028B1 (HENAN GENUINE BIOTECH CO., LTD., priority 2023, dated 2024) are described below.

The test system of test [1] is human lung cancer NCI-H1975 (EGFRL858R/T790M) cell line. Nature of the test: Anti-tumor effect of azvudine with osimertinib in NCI-H1975 subcutaneous xenograft mice (Example 1). Conditions: for Tumor volume on the 28th day of grouping administration: day 28; for Tumor volume on the 28th day of grouping administration / Tumor weight: mean ± standard error; for Tumor weight / Tweight/Cweight: end of experiment; for Tumor weight: combination; for Tweight/Cweight: tumor weight of treatment group / solvent control group. In kind it is in vivo, BALB/c nude mice. The text has this: Animals were kept in IVC (independent ventilation system) cages (4 per cage) in SPF grade animal room. The number of animals in the cage, gender, strain, date of receipt, administration regimen, experiment number, group and date of start of the experiment were indicated on the animal information card for each cage. All cages, bedding and drinking water were sterilized before use. Cages, feed and drinking water were changed twice a week. […] The bedding was corn cobs, and was changed twice a week. • Food: Experimental animals had free access to food (irradiation sterilized, dry pelleted food) throughout the whole experimental process. • Drinking water: Experimental animals can freely drink sterilized water. • Cage identification: The number of animals in the cage, gender, strain, date of receipt, • administration regimen, experiment number, group and date of start of the experiment should be indicated on the animal information card for each cage. • Animal identification: Experimental animals were identified with ear tags.
When the cell fusion degree of each bottle reached more than 90%, the cells were digested and resuspended in PBS. The cells were counted to reach a concentration of 5×10^7/ml by using a cell counter, and each mouse was injected with 0.1 ml of cell suspension. The 8th generation cells were inoculated subcutaneously in nude mice. When the tumor grew to about 800 mm^3, the tumor was taken out and cut into a size of 2*2*2 mm^3. The chopped tumor was inoculated on the right back of each mouse. When the average volume of the tumor measured after inoculation reached 100-120 mm^3, grouping administration was started using a random stratified grouping method according to the tumor volume and animal body weight. The lung cancer cell line model was randomly divided into 4 experimental groups with 8 mice in each group. The mice were continuously administered for 28 days after grouping.
(Ti: mean tumor volume of the treatment group on the i^th day of administration, T0: mean tumor volume of the treatment group on the 0th day of administration; Vi: mean tumor volume of the solvent control group on the i^th day of administration, V0: mean tumor volume of the solvent control group on the 0th day of administration)
At the end of the experiment, the surviving animals were euthanized, and the tumor tissue was taken, and weighed to obtain the tumor weight.

The test system is the same in test [2]. Nature of the test: Anti-tumor effect of azvudine with doxitinib in NCI-H1975 subcutaneous xenograft mice (Example 2). In kind it is in vivo, BALB/c nude mice. Particulars: for Tumor volume / Tumor volume on the 20th day: mean ± SEM, azvudine 1 mg/kg, doxitinib […], combination 1 + […]; for Tumor volume: in mm³. The text has this:
Animals were kept in IVC (independent ventilation system) cages (4 per cage) in SPF grade animal room. The number of animals in the cage, gender, strain, date of receipt, administration regimen, experiment number, group and date of start of the experiment were indicated on the animal information card for each cage. All cages, bedding and drinking water were sterilized before use. Cages, feed and drinking water were changed twice a week. The breeding environment and light conditions were as follows: • Temperature: 20˜26° C. • Humidity: 40˜70% • Lighting cycle: 12 hours of light, 12 hours of no light (the light was turned on at 8 am and turned off at 8 pm) • Cage: Cages were made of polycarbonate, with a volume of 325 mm×210 mm×180 mm. The bedding was corn cobs, and was changed twice a week. • Food: Experimental animals had free access to food (irradiation sterilized, dry pelleted food) throughout the whole experimental process. • Drinking water: Experimental animals can freely drink sterilized water. • Cage identification: The number of animals in the cage, gender, strain, date of receipt, • administration regimen, experiment number, group and date of start of the experiment should be indicated on the animal information card for each cage. • Animal identification: Experimental animals were identified with ear tags.
NCI-H1975 cells were cultured in RPMI 1640 medium containing 10% fetal bovine serum in a 37° C. and 5% CO2 incubator. The cells were routinely passaged once a week. When the cell saturation reached 80%-90% and the number achieved the requirement, the cells were collected, counted and inoculated.
0.1 mL (5×10^6) of NCI-H1975 cells were subcutaneously inoculated on the right back of each mouse, and the grouping administration was started when the average tumor volume reached about 154 mm 3.
The experimental index was to investigate whether tumor growth was inhibited, delayed or cured. Tumor diameter was measured with a vernier caliper twice a week or every other day. The tumor volume was calculated according to the formula of: V=0.5a×b^2, where a and b represented the long diameter and short diameter of the tumor, respectively.
The anti-tumor efficacy of the compounds was evaluated by TGI (%) or relative tumor proliferation rate T/C (%). TGI (%) reflected the inhibition rate of tumor growth.
Relative tumor proliferation rate T/C (%) was calculated according to the formula as follows: T/C %=TRTV/CRTV×100% (TRTV represented the average RTV of the treatment group; CRTV Represented the Average RTV of the Negative Control Group). Relative Tumor Volume (RTV) was calculated based on the results of measurement of tumor according to the formula of RTV=Vt/V0, where V0 represented the tumor volume measured during grouping administration (i.e. d0), and Vt represented the tumor volume obtained in a certain measurement, and TRTV and CRTV were collected from the data on the same day.
Statistical analysis included mean and standard error (SEM) of tumor volume at each time point for each group (see Table 3 for specific data). […] The comparison between two groups was analyzed by T-test, and the comparison between three or more groups was analyzed by one-way ANOVA. All data analysis was performed with Prism. p<0.05 was considered significant difference.

Where [3] appears, read: azvudine 1 mpk, osimertinib 2.5 mpk, combination 2.5 + 1 mpk.
Setting [4] is: azvudine 1 mpk, osimertinib 2.5 mpk.
Setting [5] is: based on tumor volume on the 20th day after administration.

For orientation: TGI means how far tumour growth fell short of that in controls. Lower therefore signals little slowing of growth. With `[N-]=[N+]=N[C@]1(CO)O[C@@H](n2ccc(N)nc2=O)[C@@H](F)[C@@H]1O` [Azvudine, azvudine], the “Effect on tumor proliferation (in words)” value in test [1] (NCI-H1975 tumor-bearing mouse model) is reported as “inhibitory effect on tumor proliferation in a dose-dependent manner”. Moreover, the “TGITV (tumor volume inhibition rate)” value in test [1] (after 28 days of administration, azvudine 1 mpk, osimertinib 2.5 mpk, combination 2.5 + 1 mpk) stood at 35.7%; in test [1] (after 28 days of administration, azvudine 1 mpk, osimertinib 2.5 mpk, combination 2.5 + 1 mpk, listed as azvudine) it was 35.7%. Further, the “Tumor volume on the 28th day of grouping administration” value in test [1] (setting [3]) is given as 628.3 ± 165.4 mm^3. Further, the Tumor weight in test [1] (setting [4]) is 879.3 ± 226.9 mg. In test [1], the Tweight/Cweight was 49.5%. Besides, the “Effect on tumor growth (in words)” value in test [2] (NCI-H1975 xenograft tumor mouse model) is “inhibitory effect on tumor growth in a dose-dependent manner”. In test [2] (setting [5]), this compound yielded a TGI of 54.01%. The Tumor volume in test [2] (day 0 after administration) is 154 ± 11; in test [2] (day 3 after administration), 252 ± 25; in test [2] (day 6 after administration) it was 447 ± 46; in test [2] (day 10 after administration), 614 ± 78; in test [2] (day 13 after administration), 774 ± 106; in test [2] (day 17 after administration), 1,102 ± 118. The Tumor volume in test [2] (day 20 after administration) was 1,396 ± 162; in test [2] (day 24 after administration) it was 2,382 ± 305. The “Tumor volume on the 20th day” value in test [2] (day 20 after administration) is reported as 1,396 ± 162 mm3.
For doxitinib, the “T/C (relative tumor proliferation rate)” value in test [2] (setting [5]) was found to be 15.77%. Also, the TGI in test [2] (setting [5]) came to 87.50%. Also, the Tumor volume was determined as 154 ± 12 in test [2] (day 0 after administration); 180 ± 19 in test [2] (day 3 after administration); 232 ± 27 in test [2] (day 6 after administration); 277 ± 34 in test [2] (day 10 after administration); 350 ± 65 in test [2] (day 13 after administration); 395 ± 86 in test [2] (day 17 after administration). For the same compound, the Tumor volume in test [2] (day 20 after administration) stood at 492 ± 109; in test [2] (day 24 after administration), 802 ± 220. Besides, in test [2] (day 20 after administration), the “Tumor volume on the 20th day” value was found to be 492 ± 109 mm3.
With `C=CC(=O)Nc1cc(Nc2nccc(-c3cn(C)c4ccccc34)n2)c(OC)cc1N(C)CCN(C)C` [Osimertinib, osimertinib], the “Tumor volume on the 28th day of grouping administration” value in test [1] (setting [3]) is listed as 377.9 ± 90.8 mm^3. The Tumor weight in test [1] (setting [4]) was found to be 716.9 ± 207.4 mg. In test [1], this compound had a Tweight/Cweight of 40.3%. Moreover, in test [1] (mouse, in vivo), the “TGITV (tumor volume inhibition rate)” value is 66.4%.
